Test [1] has as its system murine neocortical neurones. Briefly: Assay for NMDA-induced toxicity in neuronal cultures (MTT). Format: cell-based. Particulars: Mus musculus, NMDA 600 μM, 1 h, compound added 30 min prior, read-out: EC50 (inhibition of NMDA-induced toxicity). How it is done: Neuronal cell death was assessed using a 3-(4,5-dimethylthiazol-2yl)-2,5-diphenyltetrazolium bromide (MTT) assay in which NMDA-induced cellular changes are reflected as altered mitochondrial activity (Ankarcrona et al., 1995), as estimated by the formation of a formazan dye, which is measured spectrophotometrically. The procedure employed is essentially that of Roehm et al. (1991) with minor modifications as previously described elsewhere in work from our laboratories Larm et al. (1996).
Primary cultures of murine neocortical neurones were established as described elsewhere (Larm et al., 1996). The effects of experimental compounds were tested in the cultures at 8 days in vitro. Exposure to NMDA (600 μM, 1 h) and other compounds was performed in an humidified incubator (5% CO2, 8% O2) at 37° C. in anti-oxidant free medium with compounds under evaluation being added 30 min prior to NMDA. For these conditions the culture medium was modified by omitting the following components: D,L-α-tocopherol, D,L-α-tocopherol acetate, catalase, superoxide dismutase and L-glutamine. Other details are described in Larm et al. (1996). Absorbance was read at 570 nm using a Ceres UV900 microplate reader. Control cultures were included in each experiment containing either vehicle alone or vehicle plus compound. These controls were taken as 100% neuronal viability, under the experimental conditions, and each experiment also included 500 μM L-glutamate representing 100% glutamatergic neuronal cell death. Background cell death in vehicle control cultures was 5-8%.
Concentration-response curves were generated as described elsewhere (Larm et al., 1996).

The target of test [2] is NMDA receptor-ionophore complex (polyamine-sensitive ifenprodil binding site). Briefly: NMDA assay: competitive binding against [125I]ifenprodil in rat cortical membranes. The conditions noted are these: 30 min, 20° C., pH 7.7. The method, then: The NMDA receptor-ionophore complex consists of a number of interacting domains, including one for polyamines where ifenprodil binds to exert its non-competitive antagonism.
The purified material was stored in methanol at -20° C.
Incubations were for 30 min. at 20° C., in triplicate, employing 12 concentrations of competing drugs. Non-specific binding was defined with 10 mM spermine. Assays were terminated by rapid filtration through GF/B filter paper and washing.

Test [3] has as its system lipid peroxidation (MDA formation) in rat brain homogenate. Kind of test: Antioxidant assay: Fe3+-stimulated lipid peroxidation (TBARs / MDA formation) in rat brain homogenate. Format: biochemical. The source says:
Lipid peroxidation has been assessed in the present study using two procedures adopted from that described by Ohkawa et al. (1979) and Cheng et al. (1994). The compounds of the present invention have shown significant antioxidant effect in both assay systems.
Malondialdehyde (MDA) is one of the breakdown products of lipid peroxidation. MDA reacts with thiobarbituric acid (TBA) to produce a characteristic pink colour that can be measured spectrophotomerically. […] The present method has been modified from those described by Ohkawa et al. (1979) and Cheng et al. (1994).
Briefly, rat brain 10% homogenates were prepared in aqueous 20 mM Tris-HCl buffer, pH 7.4 media using a Polytron homogeniser. Assays contained 100 μl of rat brain homogenate and various concentrations of test compound (10 μl) were incubated for 10 min at 37° C. Ten μl of 1.0 or 0.1 mM Fe^3+ solution was then added to stimulate lipid peroxidation and the homogenates were incubated for a further 30 min at 37° C. The reaction was stopped by addition of sodium dodecyl sulphate (100 μl of 8.1% wt/vol solution) and 750 μl of 20% sodium acetate buffer (pH 3.5). The precipitated proteins were then removed by centrifugation at 10000 g for 15 min. Five hundred μl of clear supernatant was heated with 1 ml TBA solution (0.8% wt/vol) at 95° C. for 60 min. The samples were cooled and 200 μl of each sample was pipetted into a 96 well plate and absorbencies read at 532 nm using a Ceres UV900C microplate reader. Blank values representing samples containing 20 mM Tris-HCl and Fe^3+ only were subtracted from all values. Each value was expressed as a percentage of that for samples containing homogenate and Fe^3+ only (ie, no drug). From concentration response curves the concentrations causing 50% inhibition of MDA formation (IC50 values) for the test compounds were determined by computer-assisted linear regression analysis according to published methods (Leutner, 1982). These compared favourably with the values obtained in the assay with the benchmark antioxidant compound trolox. […]

The conditions of test [4]: Gotti et al., 1988; cited from earlier work.
The subject of test [5] is polyamine sensitive binding site of the NMDA receptor complex. Particulars: Carter et al., Reynolds et al., Robinson et al.; cited from earlier work.
The mark [6] stands for this setting: Fe^3+ 100 μM, read-out: ~IC50 (inhibition of MDA formation), Fe^3+ 100 μM.
Setting [7] is: Fe^3+ 1000 μM, read-out: ~IC50 (inhibition of MDA formation), Fe^3+ 1000 μM.

Like-named read-outs stand apart in the source and are kept apart here.

On to `C[C@@H]([C@H](O)c1ccc(O)cc1)N1CCN(Cc2cc(C(C)(C)C)c(O)c(C(C)(C)C)c2)CC1` (relative stereo), for which the EC50 in test [1] worked out at 3.01 µM.
With `C[C@H]([C@H](O)c1ccc(O)cc1)N1CCN(Cc2cc(C(C)(C)C)c(O)c(C(C)(C)C)c2)CC1` (relative stereo) [2 ((R, R)-racemic)], the Ki in test [2] is 15.7 ± 4.6 µM. The IC50 in test [3] (setting [6]) is ~16.8 µM; in test [3] (setting [7]), ~14.9 µM.
For `C[C@@H]([C@H](O)c1ccc(O)cc1)N1CCN(Cc2cc(C(C)(C)C)c(O)c(C(C)(C)C)c2)CC1` (relative stereo) [2 ((R, S)-racemic)], in test [2], the Ki was found to be 14.5 ± 5.6 µM. Further, the IC50 in test [3] (setting [6]) was ~23.8 µM; in test [3] (setting [7]) it was ~24.1 µM.
As for `C[C@H]([C@H](O)c1ccc(O)cc1)N1CCN(Cc2cc(C(C)(C)C)c(O)c(C(C)(C)C)c2)CC1` (relative stereo) [Compound 2 ((R, R)-racemic)], in test [1], the EC50 was 1.28 µM.
In test [2], `CC(C)(C)c1cc(CN2CCN(CC(O)c3ccc(O)cc3)CC2)cc(C(C)(C)C)c1O` (stereo not drawn) [Compound 1, 1-(2-(4-hydroxyphenyl)-2-hydroxy)ethyl-4-(3,5-bis(1,1-dimethylethyl)-4-hydroxyphenyl)methylpiperazine] came in with a Ki of 13 ± 0.6 µM. In addition, the IC50 in test [3] (setting [6]) was ~32.7 µM; in test [3] (setting [7]), ~18.3 µM.
Take `CC(C)(C)c1cc(CN2CCN(CC(O)c3ccc(Cl)cc3)CC2)cc(C(C)(C)C)c1O` (stereo not drawn) [Compound 33, 1-(2-(4-Chlorophenyl)-2-hydroxy)ethyl-4-(3,5-bis(1,1-dimethylethyl)-4-hydroxyphenyl)methylpiperazine]: affinity in test [2] was put at a Ki of 10.8 ± 0.6 µM. In addition, the IC50 is ~57.2 µM in test [3] (setting [6]) and ~41.4 µM in test [3] (setting [7]). In addition, the EC50 in test [1] was found to be 0.39 µM.
With `CC(C(O)c1ccc(Cl)cc1)N1CCN(Cc2cc(C(C)(C)C)c(O)c(C(C)(C)C)c2)CC1` (stereo not drawn) [Compound 34, 1-(2-(4-Chlorophenyl)-2-hydroxy-1-methyl)ethyl-4-(3,5-bis(1,1-dimethylethyl)-4-hydroxyphenyl)methylpiperazine], in test [2], the Ki turned out to be 14.6 ± 2.8 µM. Further, the IC50 was ~25.4 µM in test [3] (setting [6]) and ~36.3 µM in test [3] (setting [7]).
In the same order, the values of `CC(C)(C)c1cc(CN2CCN(CCC(O)c3ccc(Cl)cc3)CC2)cc(C(C)(C)C)c1O` (stereo not drawn) [Compound 35, 1-(3-(4-Chlorophenyl)-3-hydroxy)propyl-4-(3,5-bis(1,1-dimethylethyl)-4-hydroxyphenyl)methylpiperazine] are 16.8 ± 3.2 µM, ~27.9 µM and ~9.3 µM.
Regarding `Cc1c(C)c2c(c(C)c1O)CCC(C)(CN1CCN(CC(O)c3ccc(Cl)cc3)CC1)O2` (stereo not drawn) [Compound 49], the Ki in test [2] came out at 15.2 ± 3.9 µM. The IC50 was ~3.6 µM in test [3] (setting [6]) and ~2.4 µM in test [3] (setting [7]). In addition, in test [1], the EC50 is 2.9 µM.
In the same order, the values of `CC(C)(C)c1cc(CN2CCN(CC(O)c3ccc(Br)cc3)CC2)cc(C(C)(C)C)c1O` (stereo not drawn) [Compound 65, 1-(2-(4-bromophenyl)-2-hydroxy)ethyl-4-(3,5-bis(1,1-dimethylethyl)-4-hydroxyphenyl)methylpiperazine] are 7 ± 1.5 µM, ~96.8 µM, ~53.3 µM and 0.24 µM.
In test [2], `CC(C)(C)c1cc(CN2CCN(CC(O)c3ccc(F)cc3)CC2)cc(C(C)(C)C)c1O` (stereo not drawn) [Compound 161, 1-(2-(4-fluorophenyl)-2-hydroxy)ethyl-4-(3,5-bis(1,1-dimethylethyl)-4-hydroxyphenyl)methylpiperazine] yielded a Ki of 5.4 ± 0.6 µM. The IC50 in test [3] (setting [6]) is ~19.5 µM; in test [3] (setting [7]) it was ~15.2 µM.
In the same order, the values of `CC(C)(C)c1cc(CN2CCN(CC(O)c3ccc(OC(F)(F)F)cc3)CC2)cc(C(C)(C)C)c1O` (stereo not drawn) [Compound 193, 1-(2-(4-trifluoromethoxyphenyl)-2-hydroxy)ethyl-4-(3,5-bis(1,1-dimethylethyl)-4-hydroxyphenyl)methylpiperazine] are 11.7 ± 1 µM, ~59.6 µM and ~22.3 µM.
Turning to `CC(C)(C)c1cc(CN2CCN(CC(O)c3ccc4c(c3)OCO4)CC2)cc(C(C)(C)C)c1O` (stereo not drawn) [Compound 211, 1-(2-(3,4-methylenedioxyphenyl)-2-hydroxy)ethyl-4-(3,5-bis(1,1-dimethylethyl)-4-hydroxyphenyl)methyl piperazine], the Ki in test [2] came out at 19.1 ± 5.7 µM.
Still for that read-out and setting: the result for `CC(C)(C)c1cc(CN2CCN(CC(O)c3ccc(Cl)s3)CC2)cc(C(C)(C)C)c1O` (stereo not drawn) [Compound 229, 1-(2-(2-chlorothiophen-5-yl)-2-hydroxy)ethyl-4-(3,5-bis(1,1-dimethylethyl)-4-hydroxyphenyl)methylpiperazine] reads 19.6 ± 5.2 µM.
Take `COc1ccc(OC)c(C(O)CN2CCN(Cc3cc(C(C)(C)C)c(O)c(C(C)(C)C)c3)CC2)c1` (stereo not drawn) [Compound 247, 1-(2-(2,5-dimethoxyphenyl)-2-hydroxy)ethyl-4-(3,5-bis(1,1-dimethylethyl)-4-hydroxyphenyl)methylpiperazine]: the affinity in test [2], expressed as Ki, was 8.5 ± 3.1 µM. The IC50 in test [3] (setting [6]) was ~9.9 µM; in test [3] (setting [7]), ~10.3 µM.
The corresponding values for `Cc1cc(CN2CCN(CC(O)c3ccc(Cl)cc3)CC2)cc(C(C)(C)C)c1O` (stereo not drawn) [Compound 265, 1-(2-(4-chlorophenyl)-2-hydroxy)ethyl-4-(3-(1,1-dimethylethyl)-4-hydroxy-5-methylphenyl)methylpiperazine] are 13.2 ± 2.6 µM, ~59.4 µM and ~38.5 µM.
The corresponding values for `CC(C)(C)c1cc(CN2CCN(CC(O)c3cccc([N+](=O)[O-])c3)CC2)cc(C(C)(C)C)c1O` (stereo not drawn) [Example 6, 1-(2-(3-nitrophenyl)-2-hydroxy)ethyl-4-(3,5-bis(1,1-dimethylethyl)-4-hydroxyphenyl)methyl piperazine] are 15.1 ± 6.1 µM, ~32.4 µM and ~26.6 µM.
Regarding `CC(C)(C)c1cc(CN2CCN(CC(O)c3cccc(Cl)c3)CC2)cc(C(C)(C)C)c1O` (stereo not drawn) [Example 12, 1-(2-(3-chlorophenyl)-2-hydroxy)ethyl-4-(3,5-bis(1,1-dimethylethyl)-4-hydroxyphenyl)methylpiperazine], in test [1], the EC50 came to 0.76 µM.
`Cc1cc(OCCN2CCN(CC(O)c3ccc(Cl)cc3)CC2)c(C)c(C)c1O` (stereo not drawn) [Example 21, 1-(2-(4'-chlorophenyl)-2-hydroxy)ethyl-4-(2-(2', 3', 5'-trimethyl-4'-hydroxyphenoxy))ethyl piperazine]: in test [2], the Ki was 6.1 ± 2 µM. Also, the IC50 in test [3] (setting [6]) was < 3 µM; in test [3] (setting [7]), < 1 µM.
`OC(CN1CCC(Cc2ccc(F)cc2)CC1)c1ccc(Cl)cc1` (stereo not drawn) [eliprodil]: the “neuroprotective properties / antiischaemic” value in test [4] is given as “neuroprotective properties in models of neurodegeneration following ischaemia”. Further, in test [5], the “interaction with the polyamine sensitive site of the NMDA receptor complex” value was “interacting with the polyamine sensitive binding site of the NMDA receptor”.
Turning to `Cc1c(C)c2c(c(C)c1O)CCC(C)(C(=O)O)O2` (stereo not drawn) [trolox, reference compound], the IC50 is ~88.2 µM in test [3] (setting [6]) and ~90.8 µM in test [3] (setting [7]).

The record behind these values is US6232314A, “Arylalkylpiperazine compounds as antioxidants” (Monash University, priority 1996, dated 2001).
